We go through eight compounds from PubChem BioAssay AID1259411 (Chemical Carcinogenesis Research Information System (CCRIS), 2018).

The subject of this data set is rodent carcinogenicity bioassays, tumor incidence. The data set can be described thus: CCRIS carcinogenicity studies. The method in brief: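 NCI-built, expert-reviewed records of carcinogenicity and related test outcomes (mutagenicity, tumor promotion/inhibition) compiled from published and report sources, historical span 1985-2011, not updated.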

Calls of active or inactive are those of the source. The rule behind the calls is not given here.

In the case of `C=C1C[C@@]23CC[C@H]4[C@@](C)(CCC[C@@]4(C)C(=O)O[C@@H]4O[C@H](CO)[C@@H](O)[C@H](O)[C@H]4O)[C@@H]2CC[C@]1(O[C@@H]1O[C@H](CO)[C@@H](O)[C@H](O)[C@H]1O[C@@H]1O[C@H](CO)[C@@H](O)[C@H](O)[C@H]1O)C3`, the carcinogen call was “inactive; negative” (Species: RAT, Strain/Sex: F344/FEMALE, Route: ORAL, Dose: 0, 2.5, 5% IN DIET FOR 104 WK (STUDY DURATION: 108 WK), Dose: 0, 2.5, 5% IN DIET FOR 104 WK (STUDY DURATION: 108 WK)); “inactive; negative” (Species: RAT, Strain/Sex: F344/MALE, Route: ORAL, Dose: 0, 2.5, 5% IN DIET FOR 104 WK (STUDY DURATION: 108 WK), Dose: 0, 2.5, 5% IN DIET FOR 104 WK (STUDY DURATION: 108 WK)); “inactive; negative” (Species: RAT, Strain/Sex: WISTAR/FEMALE, Route: ORAL, Dose: 0, 0.2, 0.6%, 1.2% IN DIET FOR 24 MO (STUDY DURATION: 24 MO), Dose: 0, 0.2, 0.6%, 1.2% IN DIET FOR 24 MO (STUDY DURATION: 24 MO)); “inactive; negative” (Species: RAT, Strain/Sex: WISTAR/MALE, Route: ORAL, Dose: 0, 0.2, 0.6, 1.2% IN DIET FOR 24 MO (STUDY DURATION: 24 MO), Dose: 0, 0.2, 0.6, 1.2% IN DIET FOR 24 MO (STUDY DURATION: 24 MO)).
Turning to `CC(Cl)(Cl)Cl`, the carcinogen call reads like this: (Species: MOUSE, Strain/Sex: B6C3F1/FEMALE, Route: INHALATION, Dose: 0, 150, 500, 1500 PPM IN AIR 6 HR/D 5 D/WK FOR 24 MO (STUDY DURATION: 24 MO), Dose: 0, 150, 500, 1500 PPM IN AIR 6 HR/D 5 D/WK FOR 24 MO (STUDY DURATION: 24 MO)) “inactive; negative”; (Species: MOUSE, Strain/Sex: B6C3F1/MALE, Route: INHALATION, Dose: 0, 150, 500, 1500 PPM IN AIR 6 HR/D 5 D/WK FOR 24 MO (STUDY DURATION: 24 MO), Dose: 0, 150, 500, 1500 PPM IN AIR 6 HR/D 5 D/WK FOR 24 MO (STUDY DURATION: 24 MO)) “inactive; negative”; (Species: RAT, Strain/Sex: F344/FEMALE, Route: INHALATION, Dose: 0, 150, 500, 1500 PPM IN AIR 6 HR/D 5 D/WK FOR 24 MO (STUDY DURATION: 24 MO), Dose: 0, 150, 500, 1500 PPM IN AIR 6 HR/D 5 D/WK FOR 24 MO (STUDY DURATION: 24 MO)) “inactive; negative”; (Species: RAT, Strain/Sex: F344/MALE, Route: INHALATION, Dose: 0, 150, 500, 1500 PPM IN AIR 6 HR/D 5 D/WK FOR 24 MO (STUDY DURATION: 24 MO), Dose: 0, 150, 500, 1500 PPM IN AIR 6 HR/D 5 D/WK FOR 24 MO (STUDY DURATION: 24 MO)) “inactive; negative”.
`ClC1=C(Cl)C2(Cl)C3C(Cl)C=CC3C1(Cl)C2(Cl)Cl` (configuration not stated): the carcinogen call (Species: MOUSE, Strain/Sex: B6C3F1/FEMALE, Route: ORAL, Dose: 0, 9, 18 PPM IN DIET, Dose: 0, 9, 18 PPM IN DIET, Tumor Site: Type of Lesion: LIVER: HEPATOCELLULAR CARCINOMA) was “active; positive”; the carcinogen call (Species: MOUSE, Strain/Sex: B6C3F1/MALE, Route: ORAL, Dose: 0, 6.1, 13.8 PPM IN DIET, TWA, Dose: 0, 6.1, 13.8 PPM IN DIET, TWA, Tumor Site: Type of Lesion: LIVER: HEPATOCELLULAR CARCINOMA) is “active; positive”; the carcinogen call (Species: RAT, Strain/Sex: OSBORNE-MENDEL/FEMALE, Route: ORAL, Dose: 0, 25.7, 51.3 PPM IN DIET FOR 80 WK (STUDY DURATION: 111 WK), Dose: 0, 25.7, 51.3 PPM IN DIET FOR 80 WK (STUDY DURATION: 111 WK), Tumor Site: Type of Lesion: THYROID GLAND: FOLLICULAR CELL CARCINOMA OR ADENOMA) is listed as “equivocal”; the carcinogen call (Species: RAT, Strain/Sex: OSBORNE-MENDEL/MALE, Route: ORAL, Dose: 0, 38.9, 77.9 PPM IN DIET, TWA, Dose: 0, 38.9, 77.9 PPM IN DIET, TWA) was “inactive; negative”.
For `CCO[Si](CCCOCC1CO1)(OCC)OCC` (configuration not stated), the carcinogen call (Species: MOUSE, Strain/Sex: C3H/MALE, Route: DERMAL, Dose: 0, 2 MG IN ACETONE 3/WK FOR DURATION OF STUDY (STUDY DURATION: LIFETIME)) was “inactive; negative”.
With `Cl/C=C\CCl`, the carcinogen call (Species: MOUSE, Strain/Sex: ICR/FEMALE, Route: SUBCUTANEOUS, Dose: 3.0 MG/INJ IN 0.05 ML TRIOCTANOIN 1/WK, Tumor Site: Type of Lesion: INJECTION SITE: FIBROSARCOMA) is “active; positive”.
Take `Nc1cc(Cl)cc(C(=O)O)c1Cl`: the carcinogen call runs as follows: (Species: MOUSE, Strain/Sex: B6C3F1/FEMALE, Route: ORAL, Dose: 0, 10000, 20000 PPM IN DIET FOR 80 WK (STUDY DURATION: 91-92 WK), Dose: 0, 10000, 20000 PPM IN DIET FOR 80 WK (STUDY DURATION: 91-92 WK), Tumor Site: Type of Lesion: LIVER: HEPATOCELLULAR CARCINOMA) “active; positive”; (Species: MOUSE, Strain/Sex: B6C3F1/MALE, Route: ORAL, Dose: 0, 10000, 20000 PPM IN DIET FOR 80 WK (STUDY DURATION: 91-92 WK), Dose: 0, 10000, 20000 PPM IN DIET FOR 80 WK (STUDY DURATION: 91-92 WK), Tumor Site: Type of Lesion: LIVER: HEPATOCELLULAR CARCINOMA) “equivocal”; (Species: RAT, Strain/Sex: OSBORNE-MENDEL/FEMALE, Route: ORAL, Dose: 0, 10000, 20000 PPM IN DIET FOR 80 WK (STUDY DURATION: 112-113 WK ), Dose: 0, 10000, 20000 PPM IN DIET FOR 80 WK (STUDY DURATION: 112-113 WK )) “inactive; negative”; (Species: RAT, Strain/Sex: OSBORNE-MENDEL/MALE, Route: ORAL, Dose: 0, 10000, 20000 PPM IN DIET FOR 80 WK (STUDY DURATION: 112-113 WK), Dose: 0, 10000, 20000 PPM IN DIET FOR 80 WK (STUDY DURATION: 112-113 WK)) “inactive; negative”.
For the compound `Oc1ccc(-c2c(Cl)cc(Cl)cc2Cl)cc1`, the carcinogen call reads like this: (Species: MOUSE, Strain/Sex: BALB/CCRGL/FEMALE, Route: SUBCUTANEOUS, Dose: 20 UG DAILY FOR 5 D BEGINNING 16 HR AFTER BIRTH (STUDY DURATION: 20 MO), Tumor Site: Type of Lesion: MAMMARY GLAND: CARCINOMA (5/33), CERVICOVAGINAL TRACT: CARCINOMA (2/33), LUNG TUMORS (3/33), Tumor Site: Type of Lesion: MAMMARY GLAND: CARCINOMA (5/33), CERVICOVAGINAL TRACT: CARCINOMA (2/33), LUNG TUMORS (3/33)) “active; positive; (statistically significant for total number of tumors)”; (Species: MOUSE, Strain/Sex: BALB/CCRGL/FEMALE, Route: SUBCUTANEOUS, Dose: 200 UG DAILY FOR 5 D BEGINNING 16 HR AFTER BIRTH (STUDY DURATION: 20 MO), Tumor Site: Type of Lesion: CERVICOVAGINAL TRACT: CARCINOMA (10/22)) “active; positive”.
With `C=C(F)F`, the carcinogen call was “inactive; negative” (Species: RAT, Strain/Sex: SPRAGUE-DAWLEY/FEMALE, Route: GAVAGE, Dose: 0, 4.12, 8.25 MG/KG BW IN OLIVE OIL 1/D 4-5 D/WK FOR 52 WK (STUDY DURATION: LIFETIME), Dose: 0, 4.12, 8.25 MG/KG BW IN OLIVE OIL 1/D 4-5 D/WK FOR 52 WK (STUDY DURATION: LIFETIME), Tumor Site: Type of Lesion: [BRAIN WAS ONLY SITE EVALUATED]) and “inactive; negative” (Species: RAT, Strain/Sex: SPRAGUE-DAWLEY/MALE, Route: GAVAGE, Dose: 0, 4.12, 8.25 MG/KG BW IN OLIVE OIL 1/D 4-5 D/WK FOR 52 WK (STUDY DURATION: LIFETIME), Dose: 0, 4.12, 8.25 MG/KG BW IN OLIVE OIL 1/D 4-5 D/WK FOR 52 WK (STUDY DURATION: LIFETIME), Tumor Site: Type of Lesion: [BRAIN WAS ONLY SITE EVALUATED]).
